Experimental data reported in US20210130401A1, “PEPTIDOMIMETIC INHIBITORS OF THE WDR5-MLL INTERACTION” (THE REGENTS OF THE UNIVERSITY OF MICHIGAN, priority 2017, published 2021).
Like-named read-outs stand apart in the source and are kept apart here. Starred links: 1 amine or outer side, 2 acyl side, 3 side chain; linkers in the order of their positions; H or OH if unused. Positions of bridges follow the written chain, without caps; N, C: chain ends. Non-standard residues stand in square brackets, D forms with d. Residues, ends and D or L forms follow the SMILES beside them. ξ: configuration not given here. *: point of attachment. Orn(2-imidazolinyl) = N[C@@H](CCCNC1=NCCN1)C(=O)O; dαMeDab = C[C@](CCN[*:3])(N[*:1])C(=O)[*:2]; Arg(Me2s) = CN=C(NC)NCCC[C@H](N)C(=O)O; Lys(Me2) = CN(C)CCCC[C@H](N)C(=O)O; Cit = NC(=O)NCCC[C@H](N)C(=O)O; dCha = N[C@H](CC1CCCCC1)C(=O)O; dPhg = N[C@@H](C(=O)O)c1ccccc1; ξhhPhe = NC(CCCc1ccccc1)C(=O)O; ξhPhe = NC(CCc1ccccc1)C(=O)O; Imidazol2yl = c1c[nH]c(*)n1; Pyridin(2-yl) = c1ccc(*)nc1; 2Pyrimidinyl = c1cnc(*)nc1; Isobutyryl = CC(C)C(=O)*; Orn = NCCC[C@H](N)C(=O)O; Dab = NCC[C@H](N)C(=O)O; Abu = CC[C@H](N)C(=O)O; Dap = NC[C@H](N)C(=O)O; ξOrn = NCCCC(N)C(=O)O; Acryloyl = C=CC(=O)*; ξDab = NCCC(N)C(=O)O; ClAc = O=C(CCl)*

Tested on: MOLM-13 leukemia cells carrying MLL-AF9 fusion
Experiment: cell viability assay (WST-8), MOLM-13
Type: cell-based
Conditions: Homo sapiens, MOLM-13, 96 h
[1] = Table 2A, 4 days treatment, read-out: MOLM-13 IC50

For `CC[C@@H]1NC(=O)[C@H](CCCCN(C)C)NC(=O)[C@](C)(NC(=O)C(C)C)CCNC(=O)[C@@H](c2ccccc2)NC1=O` [Cpd. No. 6, N-((3R,6S,9S,12R)-9-(4-(dimethylamino)butyl)-6-ethyl-12-methyl-2,5,8,11-tetraoxo-3-phenyl-1,4,7,10-tetraazacyclotetradecan-12-yl)isobutyramide] (Isobutyryl-[dαMeDab][Lys(Me2)][Abu][dPhg]; lactam 1-C), which IC50 (read-out: MOLM-13 IC50 (μM)) is on record?
Its IC50 is greater than 10 µM.

`CC[C@@H]1NC(=O)[C@H](CNC2CCN(C)CC2)NC(=O)[C@](C)(NC(=O)C(C)C)CCNC(=O)[C@@H](c2ccccc2)NC1=O` [Cpd. No. 7, N-((3R,6S,9S,12R)-6-ethyl-12-methyl-9-(((1-methylpiperidin-4-yl)amino)methyl)-2,5,8,11-tetraoxo-3-phenyl-1,4,7,10-tetraazacyclotetradecan-12-yl)isobutyramide] was tested. Which IC50 (read-out: MOLM-13 IC50 (μM)) did it give?
The IC50 was greater than 10 µM.

With `CC[C@@H]1NC(=O)[C@H](CCNC2CCN(C)CC2)NC(=O)[C@](C)(NC(=O)C(C)C)CCNC(=O)[C@@H](c2ccccc2)NC1=O` [Cpd. No. 8, N-((3R,6S,9S,12R)-6-ethyl-12-methyl-9-(2-((1-methylpiperidin-4-yl)amino)ethyl)-2,5,8,11-tetraoxo-3-phenyl-1,4,7,10-tetraazacyclotetradecan-12-yl)isobutyramide] as the compound, how does the IC50 (read-out: MOLM-13 IC50 (μM)) read?
The IC50 was greater than 10 µM.

`CC[C@@H]1NC(=O)[C@H](CCCNC2CCN(C)CC2)NC(=O)[C@](C)(NC(=O)C(C)C)CCNC(=O)[C@@H](c2ccccc2)NC1=O` [Cpd. No. 9, N-((3R,6S,9S,12R)-6-ethyl-12-methyl-9-(3-((1-methylpiperidin-4-yl)arnino)propyl)-2,5,8,11-tetraoxo-3-phenyl-1,4,7,10-tetraazacyclotetradecan-12-yl)isobutyramide] was tested. Which IC50 (read-out: MOLM-13 IC50 (μM)) did it give?
The IC50 was greater than 10 µM.

With `CC[C@@H]1NC(=O)[C@H](CNc2ccccn2)NC(=O)[C@](C)(NC(=O)C(C)C)CCNC(=O)[C@@H](c2ccccc2)NC1=O` [Cpd. No. 10, N-((3R,6S,9S,12R)-6-ethyl-12-methyl-2,5,8,11-tetraoxo-3-phenyl-9-((pyridin-2-ylamino)methyl)-1,4,7,10-tetraazacyclotetradecan-12-yl)isobutyramide] (Isobutyryl-[dαMeDab][Dap](Pyridin(2-yl))[Abu][dPhg]; lactam 1-C) as the compound, how does the IC50 (read-out: MOLM-13 IC50 (μM)) read?
The IC50 was greater than 10 µM.

For `CC[C@@H]1NC(=O)C(CCNc2ccccn2)NC(=O)[C@](C)(NC(=O)C(C)C)CCNC(=O)[C@@H](c2ccccc2)NC1=O` (stereo partly drawn) [Cpd. No. 11, N-((3R,6S,12R)-6-ethyl-12-methyl-2,5,8,11-tetraoxo-3-phenyl-9-(2-(pyridin-2-ylamino)ethyl)-1,4,7,10-tetraazacyclotetradecan-12-yl)isobutyramide] (Isobutyryl-[dαMeDab][ξDab](Pyridin(2-yl))[Abu][dPhg]; lactam 1-C), which IC50 (read-out: MOLM-13 IC50 (μM)) is on record?
The IC50 was greater than 10 µM.

How did the IC50 (read-out: MOLM-13 IC50 (μM)) turn out when `CC[C@@H]1NC(=O)C(CCc2ccccc2)NC(=O)[C@](C)(NC(=O)C(C)C)CCNC(=O)[C@@H](c2ccccc2)NC1=O` (stereo partly drawn) [Cpd. No. 13, N-((3R,6S,12R)-6-ethyl-12-methyl-2,5,8,11-tetraoxo-9-phenethyl-3-phenyl-1,4,7,10-tetraazacyclotetradecan-12-yl)isobutyramide] (Isobutyryl-[dαMeDab][ξhPhe][Abu][dPhg]; lactam 1-C) was run?
The IC50 was greater than 10 µM.

`CC[C@@H]1NC(=O)C(CCCc2ccccc2)NC(=O)[C@](C)(NC(=O)C(C)C)CCNC(=O)[C@@H](c2ccccc2)NC1=O` (stereo partly drawn) [Cpd. No. 14, N-((3R,6S,12R)-6-ethyl-12-methyl-2,5,8,11-tetraoxo-3-phenyl-9-(3-phenylpropyl)-1,4,7,10-tetraazacyclotetradecan-12-yl)isobutyramide] (Isobutyryl-[dαMeDab][ξhhPhe][Abu][dPhg]; lactam 1-C) was tested. Which IC50 (read-out: MOLM-13 IC50 (μM)) did it give?
The IC50 was greater than 10 µM.

`CC[C@@H]1NC(=O)[C@H](CCC(N)=O)NC(=O)[C@](C)(NC(=O)C(C)C)CCNC(=O)[C@@H](c2ccccc2)NC1=O` [Cpd. No. 15, N-((3R,6S,12R)-9-(3-amino-3-oxopropyl)-6-ethyl-12-methyl-2,5,8,11-tetraoxo-3-phenyl-1,4,7,10-tetraazacyclotetradecan-12-yl)isobutyramide] (Isobutyryl-[dαMeDab]Q[Abu][dPhg]; lactam 1-C) was tested. Which IC50 (read-out: MOLM-13 IC50 (μM)) did it give?
Its IC50 is greater than 10 µM.

For `CC[C@@H]1NC(=O)[C@H](CCCNC(N)=O)NC(=O)[C@](C)(NC(=O)C(C)C)CCNC(=O)[C@@H](c2ccccc2)NC1=O` [Cpd. No. 16, N-((3R,6S,9S,12R)-6-ethyl-12-methyl-2,5,8,11-tetraoxo-3-phenyl-9-(3-ureidopropyl)-1,4,7,10-tetraazacyclotetradecan-12-yl)isobutyramide] (Isobutyryl-[dαMeDab][Cit][Abu][dPhg]; lactam 1-C), which IC50 (read-out: MOLM-13 IC50 (μM)) is on record?
The IC50 was greater than 10 µM.

For `CC[C@@H]1NC(=O)[C@H](CCNC2=NCCN2)NC(=O)[C@](C)(NC(=O)C(C)C)CCNC(=O)[C@@H](c2ccccc2)NC1=O` [Cpd. No. 18, N-((3R,6S,9S,12R)-9-(2-((4,5-dihydro-1H-imidazol-2-yl)amino)ethyl)-6-ethyl-12-methyl-2,5,8,11-tetraoxo-3-phenyl-1,4,7,10-tetraazacyclotetradecan-12-yl)isobutyramide], which IC50 (read-out: MOLM-13 IC50 (μM)) is on record?
Its IC50 is greater than 10 µM.

With `CC[C@@H]1NC(=O)[C@H](CCNc2ncc[nH]2)NC(=O)[C@](C)(NC(=O)C(C)C)CCNC(=O)[C@@H](c2ccccc2)NC1=O` [Cpd. No. 19, N-((3R,6S,9S,12R)-9-(2-((1H-imidazol-2-yl)amino)ethyl)-6-ethyl-12-methyl-2,5,8,11-tetraoxo-3-phenyl-1,4,7,10-tetraazacyclotetradecan-12-yl)isobutyramide] (Isobutyryl-[dαMeDab][Dab](Imidazol2yl)[Abu][dPhg]; lactam 1-C) as the compound, how does the IC50 (read-out: MOLM-13 IC50 (μM)) read?
The IC50 was greater than 10 µM.

With `CC[C@@H]1NC(=O)[C@H](CCCNc2ncc[nH]2)NC(=O)[C@](C)(NC(=O)C(C)C)CCNC(=O)[C@@H](c2ccccc2)NC1=O` [Cpd. No. 20, N-((3R,6S,9S,12R)-9-(3-((1H-imidazol-2-yl)amino)propyl)-6-ethyl-12-methyl-2,5,8,11-tetraoxo-3-phenyl-1,4,7,10-tetraazacyclotetradecan-12-yl)isobutyramide] (Isobutyryl-[dαMeDab][Orn](Imidazol2yl)[Abu][dPhg]; lactam 1-C) as the compound, how does the IC50 (read-out: MOLM-13 IC50 (μM)) read?
The IC50 was greater than 10 µM.

How did the IC50 (read-out: MOLM-13 IC50 (μM)) turn out when `CC[C@@H]1NC(=O)[C@H](CCCNc2ncccn2)NC(=O)[C@](C)(NC(=O)C(C)C)CCNC(=O)[C@@H](c2ccccc2)NC1=O` [Cpd. No. 21, N-((3R,6S,12R)-6-ethyl-12-methyl-2,5,8,11-tetraoxo-3-phenyl-9-(3-(pyrimidin-2-ylamino)propyl)-1,4,7,10-tetraazacyclotetradecan-12-yl)isobutyramide] (Isobutyryl-[dαMeDab][Orn](2Pyrimidinyl)[Abu][dPhg]; lactam 1-C) was run?
Its IC50 is greater than 10 µM.

How did the IC50 (read-out: MOLM-13 IC50 (μM)) turn out when `CC[C@@H]1NC(=O)[C@H](CCCN/C(N)=N/CC(F)(F)F)NC(=O)[C@](C)(NC(=O)C(C)C)CCNC(=O)[C@@H](c2ccccc2)NC1=O` [Cpd. No. 22, N-((3R,6S,9S,12R)-6-ethyl-12-methyl-2,5,8,11-tetraoxo-3-phenyl-9-(3-((E)-2-(2,2,2-trifluoroethyl)guanidino)propyl)-1,4,7,10-tetraazacyclotetradecan-12-yl)isobutyramide] was run?
The IC50 was greater than 10 µM.

For `C=CC(=O)NCCC[C@@H]1NC(=O)[C@](C)(NC(=O)C(C)C)CCNC(=O)[C@@H](c2ccccc2)NC(=O)[C@H](CC)NC1=O` [Cpd. No. 23, N-(3-((5S,8R,13R)-5-ethyl-13-isobutyramido-13-methyl-3,6,9,14-tetraoxo-8-phenyl-1,4,7,10-tetraazacyclotetradecan-2-yl)propyl)acrylamide] (Isobutyryl-[dαMeDab][Orn](Acryloyl)[Abu][dPhg]; lactam 1-C), which IC50 [1] is on record?
Its IC50 is greater than 10 µM.

With `C=CC(=O)NCCCC[C@@H]1NC(=O)[C@](C)(NC(=O)C(C)C)CCNC(=O)[C@@H](c2ccccc2)NC(=O)[C@H](CC)NC1=O` [Cpd. No. 24, N-(4-((2S,5S,8R,13R)-5-ethyl-13-isobutyramido-13-methyl-3,6,9,14-tetraoxo-8-phenyl-1,4,7,10-tetraazacyclotetradecan-2-yl)butyl)acrylamide] (Isobutyryl-[dαMeDab]K(Acryloyl)[Abu][dPhg]; lactam 1-C) as the compound, how does the IC50 [1] read?
The IC50 was greater than 10 µM.

For `CC[C@@H]1NC(=O)C(CCCNC(=O)CCl)NC(=O)[C@](C)(NC(=O)C(C)C)CCNC(=O)[C@@H](c2ccccc2)NC1=O` (stereo partly drawn) [Cpd. No. 25, N-((3R,6S,12R)-9-(3-(2-chloroacetamido)propyl)-6-ethyl-12-methyl-2,5,8,11-tetraoxo-3-phenyl-1,4,7,10-tetraazacyclotetradecan-12-yl)isobutyramide] (Isobutyryl-[dαMeDab][ξOrn](ClAc)[Abu][dPhg]; lactam 1-C), which IC50 [1] is on record?
Its IC50 is greater than 10 µM.

With `CC[C@@H]1NC(=O)[C@H](CCCNC(=N)NC(C)=O)NC(=O)[C@](C)(NC(=O)C(C)C)CCNC(=O)[C@@H](CC2CCCCC2)NC1=O` [Cpd. No. 26, N-((3R,6S,9S,12R)-9-(3-(3-acetylguanidino)propyl)-3-(cyclohexylmethyl)-6-ethyl-12-methyl-2,5,8,11-tetraoxo-1,4,7,10-tetraazacyclotetradecan-12-yl)isobutyramide] (Isobutyryl-[dαMeDab]R(Ac)[Abu][dCha]; lactam 1-C) as the compound, how does the IC50 (read-out: MOLM-13 IC50 (μM)) read?
Its IC50 is 1.02 µM.

With `CC[C@@H]1NC(=O)[C@H](CCCNC2=NCCN2)NC(=O)[C@](C)(NC(=O)C(C)C)CCNC(=O)[C@@H](CC2CCCCC2)NC1=O` [Cpd. No. 30, N-((3R,6S,9S,12R)-3-(cyclohexylmethyl)-9-(3-((4,5-dihydro-1H-imidazol-2-yl)amino)propyl)-6-ethyl-12-methyl-2,5,8,11-tetraoxo-1,4,7,10-tetraazacyclotetradecan-12-yl)isobutyramide] (Isobutyryl-[dαMeDab][Orn(2-imidazolinyl)][Abu][dCha]; lactam 1-C) as the compound, how does the IC50 (read-out: MOLM-13 IC50 (μM)) read?
Its IC50 is 0.67 µM.

With `CC[C@@H]1NC(=O)[C@H](CCCN/C(=N/C)NC)NC(=O)[C@](C)(NC(=O)C(C)C)CCNC(=O)[C@@H](CC2CCCCC2)NC1=O` [Cpd. No. 31, N-((3R,6S,9S,12R)-3-(cyclohexylmethyl)-9-(3-((E)-2,3-dimethylguanidino)propyl)-6-ethyl-12-methyl-2,5,8,11-tetraoxo-1,4,7,10-tetraazacyclotetradecan-12-yl)isobutyramide] (Isobutyryl-[dαMeDab][Arg(Me2s)][Abu][dCha]; lactam 1-C) as the compound, how does the IC50 (read-out: MOLM-13 IC50 (μM)) read?
Its IC50 is greater than 10 µM.
